This series can be described thus: gradient 5% acetonitrile 3 min, to 50% in 2 min, to 85% in 15 min, held 3 min, 100 µL/min. Particulars: column: Zorbax Extend-C18 2.1 x 50 mm; eluents: water / acetonitrile, 0.1% formic acid. In short, it runs like this: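 Pure standards were analyzed in mixtures of ~100 molecules using HPLC coupled to a quadrupole time-of-flight mass spectrometer, in both positive and negative ionization mode. Separation used a Zorbax Extend-C18 column (2.1 × 50 mm, 1.8 μm) at 100 μL/min, with water and acetonitrile each containing 0.1% formic acid. Dead and dwell volumes were 40 μL and 900 μL, and data were collected over 3 months. Retention time was read from computationally picked adduct peaks, each inspected manually.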
For the molecule `Cc1cc(N2CCN(C)CC2)nc(N2CCN(S(=O)(=O)c3ccc(Br)cc3)CC2)n1`, the RP-LC retention time worked out at 580 s.
Then `Cc1cc(NC(=O)CN2C(=O)C3CCCCN3c3ccc(C(=O)N4CCCC4)cc32)no1` (stereo not given), with 738 s; and `CCC(=O)N1CCC2(CC1)CC(CC(=O)N(C)C)CCO2` (stereo not given), with 598 s; and `COc1ccc(-c2cc3nn(CC(=O)NCc4cccc(OC)c4)c(=O)n3c(C)n2)cc1`, with 875 s.
Regarding `CCc1onc(C)c1C1CCCN1C(=O)c1c(F)cccc1F` (stereo not given), the RP-LC retention time was found to be 788 s.
Then `O=S(=O)(c1ccc(Cl)cc1)N1CCC(c2nc(-c3cccnc3)no2)CC1`, with 961 s.
Consider `CCc1cccc(NS(=O)(=O)c2cc3n(c2)CCCNC3=O)c1`, for which the RP-LC retention time worked out at 690 s.
Then `O=C(CC(F)(F)F)NCCc1noc(C2CC2)n1`, with 671 s; and `Nc1cc(C2CCN(C(=O)NCCc3ccccc3)CC2)no1`, with 668 s; and `CCn1c(=O)sc2cc(S(=O)(=O)N3CCC(C(=O)NCc4ccc(F)cc4)CC3)ccc21`, with 979 s.
The same measure for `O=C(c1ccccc1F)N1CCN(S(=O)(=O)c2cc3c4c(c2)CCC(=O)N4CCC3)CC1`: 762 s.
`COc1ccc(OC)c(NS(=O)(=O)c2ccc(-c3nnc(C4CCC4)o3)o2)c1`: the RP-LC retention time stood at 893 s.
Turning to `O=c1[nH]cc(Cl)cc1Cl`, the RP-LC retention time turned out to be 662 s.
In the case of `CC(C)n1cnnc1CC1CCN(C(=O)C2CCC2)CC1`, the RP-LC retention time is 611 s.
The same measure for `Cc1ccn2cc(C(=O)NC(C)c3ccc(F)cc3)nc2c1` (stereo not given): 670 s; for `CCOC(=O)CC1(NC(=O)N2CCCn3nc(-c4cccnc4)cc3C2)CCCCC1`: 643 s; for `O=C(c1ccc2c(c1)CCN2C(=O)C1CC1)N1CCN(c2ccccc2)CC1`: 829 s.
The same measure for `O=C(Nc1cccc(F)c1)N1CCN(c2cnn3c(C4CC4)nnc3c2)CC1`: 663 s; for `COc1ccc(-c2noc(-c3ccc(N4CCN(C)CC4)nn3)n2)cc1`: 630 s.
The same measure for `CCC(=O)Nc1cc2c(cc1S(=O)(=O)c1ccccc1)n(C)c(=O)n2C`: 710 s.
For `CCOc1ccc(-c2cc3c(=O)n(Cc4nc(-c5cccc(Br)c5)no4)ccn3n2)cc1`, the RP-LC retention time is 1200 s.
Then `CCC(C)NC(=O)c1cc(COc2ccc(NC(=O)CC(C)C)cc2)on1` (stereo not given), with 871 s.
Take `COc1ccc(Cc2nc(-c3ccc4c(c3)ncn4CCC(=O)N3CCCC3)no2)cc1`: the RP-LC retention time worked out at 716 s.
The same measure for `Cn1c(=O)c2nc(S(=O)(=O)CCC(=O)Nc3ccc(Br)cc3)n(C)c2n(C)c1=O`: 779 s; for `O=C(NCC1CCN(Cc2cccs2)CC1)C(=O)Nc1ccc(C(F)(F)F)cc1`: 603 s.
Turning to `CC1CCN(c2cncnc2-n2cc(NC(=O)Cc3cccs3)cn2)CC1`, the RP-LC retention time was found to be 740 s.
The same measure for `CCc1ccc(-c2nn(C)c(=O)c3c2CCCC3)cc1S(=O)(=O)N1CCC(C(N)=O)CC1`: 736 s.
The same measure for `CCc1cccc(C)c1NC(=O)Cn1c(CC)nc2c(c1=O)CN(Cc1ccccc1)CC2`: 677 s.
Turning to `Cc1cc2nn(CC(=O)NCc3ccccc3)c(=O)n2c(Nc2ccc(C)c(F)c2)n1`, the RP-LC retention time came out at 1060 s.
Then `CCCS(=O)(=O)N1CC(=O)N(c2ccc(Cl)cc2C)C(C)(C(=O)NC2CCCCC2)C1` (stereo not given), with 1040 s; and `Cc1cccc(-n2c(=O)c3c(cc(C)n3C)n(CC(=O)Nc3cc(C)ccc3C)c2=O)c1`, with 844 s; and `Cc1nc(-c2cn(C(C)C)c3ncccc23)sc1C(=O)N1CCN(CC(C)C)CC1`, with 661 s.
Then `COc1ccc(N2CC(C(=O)NCCc3c[nH]c4ccccc34)CC2=O)cc1` (stereo not given), with 725 s; and `Nc1nc2ccc([N+](=O)[O-])cc2[nH]1`, with 610 s; and `CCCNC(=O)N(C1CCOCC1)C1CCN(C(=O)Cc2ccsc2)CC1`, with 703 s.
Then `CCOC(=O)c1ccc(N2C=C(C(=O)OC)S(=O)(=O)c3cc(F)ccc32)cc1`, with 861 s; and `CCn1c(=O)c(N2CCN(C(=O)Nc3ccccc3Br)CC2)nc2ccccc21`, with 1010 s; and `O=C(Nc1c(F)c(F)c(F)c(F)c1F)c1cc2sccc2n1Cc1ccc(F)cc1`, with 1180 s.
As for `CC(NC(=O)Cc1cccn1-c1ccc(Cl)cc1)c1cccnc1` (stereo not given), the RP-LC retention time was 649 s.
Then `O=C(Nc1ccccc1)N1CCC(n2cnc3cc(Cl)ccc3c2=O)CC1`, with 784 s.
For the molecule `COc1ccc(NC(=O)C2CCCN(S(=O)(=O)c3cc(-c4noc(C)n4)cs3)C2)cc1Cl` (stereo not given), the RP-LC retention time stood at 991 s.
The same measure for `CCc1ccccc1NC(=O)Cn1c(=O)n(-c2ccc(C)cc2)c(=O)c2c1cc(C)n2C`: 892 s; for `Cc1nc([C@@H]2CN(S(=O)(=O)C(C)C)C[C@H]2C(N)=O)n[nH]1`: 566 s.
The same measure for `O=C(c1ccccc1Br)N1CCN(Cc2noc3ccccc23)CC1`: 760 s; for `O=C(Nc1cc(F)ccc1F)N1CCCC1c1nc(-c2ccccc2)no1` (stereo not given): 1020 s.
The same measure for `Cc1ccc(C)c(NC(=O)C2CCN(S(C)(=O)=O)c3cc(Cl)ccc3O2)c1` (stereo not given): 935 s.
On to `COc1ccc(N(CCC#N)S(=O)(=O)c2cccc3nsnc23)cc1`, for which the RP-LC retention time was 789 s.
Molecule `Cc1ccc(C)c(NC(=O)NCCn2nnc3cc(C(=O)N(C)C)ccc32)c1` registered an RP-LC retention time of 664 s.
In the case of `CCOC(=O)CCC(=O)N(Cc1ccsc1)CC(F)(F)F`, the RP-LC retention time is 839 s.
Then `Cc1ccccc1-c1noc(CCn2nc(-c3ccc4c(c3)OCO4)ccc2=O)n1`, with 945 s; and `Cc1ccc(NC(=O)N2CCC(n3cnc4cc(Cl)ccc4c3=O)CC2)cc1F`, with 904 s.
Then `COc1ccccc1N1CCN(C(=O)CN2C(=O)NC(c3ccc(Cl)cc3)C3=C2COC3=O)CC1` (stereo not given), with 770 s.
Then `COc1cc(OC)cc(-c2noc(Cn3cnc4c(oc5ccccc54)c3=O)n2)c1`, with 944 s.
With `CCCCS(=O)(=O)N1CCc2c(c(-c3nnc(SCC)n3CC)nn2C)C1`, the RP-LC retention time is 878 s.
Then `N#Cc1ccc(C(=O)N2CCN(c3nc(CN4CCCCC4)cs3)CC2)cc1`, with 614 s; and `O=c1[nH]c(-c2ccccc2)nc2sc(-c3ccccc3)cc12`, with 980 s.
Then `CCc1nc2c(NC(=O)c3ccccc3C(F)(F)F)cccn2n1`, with 866 s; and `Cc1cc(NC(=O)C2CCCN(c3ccc(-n4cccn4)nn3)C2)no1` (stereo not given), with 654 s.
Then `Cc1nn(-c2ccc(F)cc2)c2nc(N3CCCC(C(=O)NCc4cccc(Cl)c4)C3)sc12` (stereo not given), with 1200 s.
`Cc1cc(C(=O)NCC(O)(c2ccccc2)C(F)(F)F)no1` (stereo not given) returned an RP-LC retention time of 776 s.
Then `CCCC(=O)Nc1ccc2c(c1)CC(C(=O)NCCOC)CO2` (stereo not given), with 646 s; and `Cc1nnc(-c2c(S(=O)(=O)NCc3ccco3)c(C)n(C)c2C)o1`, with 729 s; and `CCN1CCN(CCNC(=O)c2ccc(-c3ccc4c(c3)CCN4C(C)=O)cc2)CC1`, with 598 s.
The same measure for `O=C(NCc1ccccc1)c1csc(Nc2ccncn2)n1`: 687 s; for `COc1cccc(NC(=O)c2cn3c(n2)CCCC3)c1`: 598 s; for `COc1ccc(S(=O)(=O)NC2CCN(C(=O)Cc3c[nH]c4ccccc34)CC2)cc1`: 766 s.
The same measure for `CCOC(=O)N1CCN(C(=O)CSc2ncnc3c2cnn3-c2ccc(F)cc2)CC1`: 849 s; for `COC(=O)C1C(=O)C2=C(CC1C)NC(=O)CC2c1cccc(C)c1` (stereo not given): 675 s; for `Cn1cnc2cc(CNC(=O)c3cccs3)ccc21`: 571 s.
The molecule `CN1CCN(C(=O)C2(C)CC(c3ccccc3)=NO2)CC1` (stereo not given) showed an RP-LC retention time of 608 s.
With `COc1cccc(Cc2nc(-c3ccc4c(c3)nc(C)c(=O)n4C)no2)c1`, the RP-LC retention time was determined as 899 s.
The same measure for `Cc1nn(-c2ccccc2)c2c1N(CC(=O)Nc1ccc(F)cc1F)C(=O)CS2`: 852 s.
In turn, `Cc1ccc(-c2cc3c(=O)n(Cc4nc(-c5ccccc5Br)no4)ncn3n2)c(C)c1` had an RP-LC retention time of 1250 s.
The same measure for `COc1ccc(NC(=O)CN2C(=O)NC3(CCC(C)CC3)C2=O)cc1OC` (stereo not given): 720 s; for `COCCCNC(=O)C1CCCN(C(=O)c2cc(C)cc(C)c2)C1` (stereo not given): 700 s; for `Cc1nn(CC(=O)NC2CCCCCC2)c(=O)c2nn(-c3ccccc3)c(C)c12`: 822 s.
Then `O=C(C1CCCO1)N1CCC(CCOc2cccc(F)c2)CC1` (stereo not given), with 842 s; and `Cn1c(=O)c2nc(S(=O)(=O)CCC(=O)Nc3cccc(Br)c3)n(C)c2n(C)c1=O`, with 750 s.
In turn, `Cc1ccc(C)c(NC(=O)Cn2nc3cc(C)nc(-c4ccccc4)n3c2=O)c1` came in with an RP-LC retention time of 868 s.
The same measure for `CCOc1ccc2c(n1)CCN(C(=O)Nc1cc(C)cc(C)c1)C2`: 912 s.

These data come from the METLIN SMRT retention time set (Domingo-Almenara et al. 2019).
